Data on three molecules can be found in article PMC9024361, “Pharmacokinetics, Tissue Distribution, Metabolism and Excretion of a Novel COX-2 Inhibitor, Vitacoxib, in Rats” (Frontiers in Veterinary Science, 2022).

“Also recorded” adds a separate entry of the source. Where two headings read alike, the source gives them in different places.

Usually Tmax stands for the time from dosing to the highest level. One may read the AUC(0-t) as exposure summed from dosing to a finite time, without extrapolation to infinity. A high value points to more exposure.

The nature of data set [1]: Metabolite identification in plasma, bile, urine and feces (UPLC Q-TOF MS). The format is in vivo, Wistar rats. Particulars: rats; for Source (matrices in which the metabolite was detected): single oral 18 mg/kg vitacoxib, Q-TOF MS; for Share of the metabolite in urinary and fecal excretion: urine and feces, not quantified. As to the method:
Six male rats were placed in their own metabolic cages and orally administered a single dose of 18 mg/kg dose of vitacoxib (tablets crushed and dissolved in 0.5% CMC-Na, 6 mg/ml). Bile, fecal, and urine samples were collected from each animal in metabolic cages at 0~8, 8~23, 23~32, 32~48, 48~58, 58~72, 72~82, 82~96, and 96~128 h after administration. The total weight of urine and feces was recorded after collection. Feces samples were diluted with 3 volumes (v/w) of triple-distilled water and homogenized, and the homogenate was stored at −20°C until further analysis.
Chromatographic separation was performed using an ACQUITY UPLC^TM system (Waters Corporation, Milford, MA, USA). A Waters ACQUITY UPLC HSS T3 column (1.7 μm, 2.1 mm × 100 mm) was used for reversed-phase UPLC and the column temperature was maintained at 40°C. The flow rate of the mobile phase was 0.5 ml/min and the injection volume was 5 μl. Mobile phase A was 0.1% formic acid in water and mobile phase B was 0.1% formic acid in methanol. The column was eluted using a linear gradient (0 → 1 min, phase A 90%; 1 → 10 min, phase A 90% → 5%; 10 → 13.5 min, phase A 5% → 5%; and 13.5 → 15 min, phase A 5% → 90%).
MS analysis was performed using a Xevo G2-S Q-TOF mass spectrometer. The eluent was not shunted but injected directly into the mass analysis system in the positive-ion mode. The source temperature was set at 120°C. The flow rate of the desolvation gas was 800 L/h at a temperature of 500°C. The capillary voltage was set at 3 kV with 35 V as the cone voltage. Methods to analyze different tissues and samples were developed and validated in our lab. Data were analyzed using Metabolynx^TM software (version 4.1), which could automatically identify metabolites by comparing treatment samples with the respective controls.

Data set [2] deals with Sprague Dawley (SD) rats. Particulars: rat, in vivo; cited from earlier work.
The subject of data set [3] is rabbits. Set-up: method as in PMID 28959651. Particulars: cited from earlier work.
Data set [4] has as its system rats. The data set can be described thus: Observation of adverse effects after a single oral dose. It counts as in vivo, Wistar rats. Particulars: single oral dose 18 mg/kg BW. Here is the method: (§1) Five male rats were administered a single dose of vitacoxib (18 mg/kg) obtained by crushing and dissolving vitacoxib tablets in 0.5% CMC-Na (6 mg/ml). Blood samples (0.3 ml) were collected via a cannula directly into heparinized tubes before drug administration and 5, 15, 30 min, and 1, 2, 3, 4, 6, 8, 10, 12, 24, 36, and 48 h after drug administration. The samples were centrifuged at 2,280 × g for 10 min as soon as possible and stored at −20°C until further analysis (within 21 days).

The subject of data set [5] is COX-2. Also noted: method as in doi:10.11669/cpj.2013.20.011. Particulars: dogs, preclinical trials; cited from earlier work.
A short description of data set [6]: Bile excretion of unchanged drug in bile-duct cannulated rats. Particulars: single oral 18 mg/kg, 0~72 h. It counts as in vivo, Wistar rats. As to the method: (§2) Eight male rats with bile-duct cannulation were administered 18 mg/kg of vitacoxib (tablets crushed and dissolved in 0.5% CMC-Na, 6 mg/ml). Rats were housed in metabolism cages and bile samples were collected at 2, 4, 6, 8, 10, 14, 24, 36, 48, 60, and 72 h after drug administration. All samples were stored at −20°C until further analysis. […] Vitacoxib in urine, fecal, and bile samples was determined via validation UPLC-MS/MS using the procedure described for blood ([18]).

The nature of data set [7]: Tissue distribution after a single oral dose. It counts as in vivo, Wistar rats. Conditions: rats. As to the method: Eighteen rats were administered a single oral dose (18 mg/kg BW) of vitacoxib (tablets crushed and dissolved in 0.5% CMC-Na, 6 mg/ml). Six rats were euthanized at each time point of 0.25, 6, and 24 h after dose administration. The brain, liver, heart, spleen, lungs, bladder, kidneys, gracilis muscle, gastrointestinal tract, large intestinal contents, small intestine, bone marrow, testes, epididymis, thymus gland, fat, and pancreas were collected and weighed. Each sample was diluted with 3 volumes (v/w) of triple-distilled water and homogenized, and the homogenate was stored at −20°C until further analysis. Vitacoxib in tissue samples was analyzed using UPLC-MS/MS by following a previously described procedure.

The nature of data set [8]: Plasma pharmacokinetics after a single oral dose. It counts as in vivo. Particulars: male, Wistar, rat, rats, single p.o. 18 mg/kg b.w., n = 5, plasma. As to the method: as §1
Vitacoxib in plasma samples was analyzed using an established and validated UPLC-MS/MS (Waters Acquity UPLC and Water Quattro Premier, Waters Co., USA) method using a procedure previously described by our group ([18]). The lower limit of quantification was 0.5 ng/ml and the calibration range of the method was 0.5–1,000 ng/ml. Noncompartmental analysis was performed to determine the pharmacokinetic parameters, as appropriate, using WinNonlin^TM (version 6.4, Certara, Princeton NJ, USA) computational software.

Data set [9] deals with guinea pigs. Set-up: method as in PMID 28959651. Conditions: cited from earlier work.
Data set [10] concerns SD rats. Set-up: method as in PMID 28238853, PMID 29601910. Particulars: repeated dietary administration, cited from earlier work.
The subject of data set [11] is Institute of Cancer Research (ICR) mice. Particulars: mouse, in vivo; cited from earlier work.
Data set [12] relates to COX-2. Set-up: method as in doi:10.11669/cpj.2013.20.011. Conditions: rats, preclinical trials; cited from earlier work.
Data set [13] deals with rats and mice. Set-up: method as in PMID 30128300. Conditions: cited from earlier work.
On the set-up of data set [14]: method as in PMID 30076623. Conditions: horses, 0.1 mg/kg bw; cited from earlier work.
For data set [15] the following is noted: dog, in vivo, 2 mg/kg; cited from earlier work.
Data set [16] is described as follows: Urinary and fecal excretion of unchanged drug. Particulars: rats. It counts as in vivo, Wistar rats. Here is the method:
Six male rats were placed in separate metabolic cages and administered a single oral dose of 18 mg/kg of vitacoxib (tablets were crushed and dissolved in 0.5% CMC-Na, 6 mg/ml). Urine and fecal samples were collected from each animal in metabolic cages at different time points at 2, 4, 6, 8, 10, 14, 24, 36, 48, 60, 72, 84, 96, 108, 120, 132, 144, 156, and 168 h after drug administration.
as §2

On to `CS(=O)(=O)c1ccc(-n2cnc(Cl)c2-c2ccc(C(=O)O)cc2)nc1` [M2, 4-(4-chloro-1-(5-(methylsulfonyl)pyridin-2-yl)-1H-imidazol-5-yl) benzoic acid], for which the “Source (matrices in which the metabolite was detected)” value in data set [1] is “Bile, feces, and urine”. Besides, the “Share of the metabolite in urinary and fecal excretion” value in [1] (listed as carboxylic acid derivative) is “major metabolite”; in data set [1] (listed as carboxylic acid metabolite), “primary metabolite”.
Consider `Cc1ccc(-c2c(Cl)ncn2-c2ccc(S(C)(=O)=O)cn2)cc1` [vitacoxib, 2-(4-chloro-5-p-tolyl-1H-imidazol-1-yl)-5-(methylsulfonyl) pyridine], for which the “Oral LD50” value in [2] is given as > 5,000 mg/kg body weight (BW). In addition, in data set [3], the Skin irritation result is listed as “does not cause skin irritation”. Also, the Adverse effects entry in data set [4] is “No obvious or serious adverse effects; also recorded: no adverse effects”. Moreover, in data set [5], the “COX-2 inhibition (specificity)” value is recorded as “specifically inhibits COX-2”. Further, in data set [6], the “Cumulative excretion in bile in unaltered form” value was 0.0261% ± 0.00627%. Moreover, in data set [7] (single oral dose 18 mg/kg BW), the “Crossing of the intestinal barrier” value was “could cross the intestinal barrier” and the “Time by which vitacoxib was detected in most tissues” value is on record as no more than 15 min. Further, the “Concentration in most tissues by 24 h after administration” value in data set [7] (single oral dose 18 mg/kg BW, 24 h) is reported as “below the limit of detection”. In addition, the “Presence in brain / crossing of blood-brain barrier” value in [7] (single oral dose 18 mg/kg BW, 18 mg/kg) is given as “found in the brain; also recorded: cross the blood-brain barrier”. For the same molecule, the “Order of AUC(0~24h) values in different tissues” value in data set [7] (single oral gavage dose 18 mg/kg bw) is on record as “gastric contents > large intestinal contents > small intestinal contents > stomach > large intestine > pancreas > liver > small intestine > fat > lungs > spleen > brain > plasma > testes > kidneys > spinal cord > thymus > bones > heart > spermatic > skeletal muscles > bladder”. Besides, in data set [8] (plasma, 18 mg/kg), the Tmax is roughly 5 h. Moreover, the AUC(0-inf) in data set [8] (0 to infinity, read-out: AUCINF_obs) was 4930 ± 588 ng·h/mL. The same molecule yielded an AUC(0-t) in data set [8] (0 to last point) of 4900 ± 604 ng·h/mL. Besides, the k el in data set [8] (noncompartmental, read-out: λz (elimination rate constant) (converted)) was 4.44e-05 s⁻¹. In addition, the Cmax in [8] (read-out: Cmax (maximum plasma concentration)) came out at 450 ± 96.2 ng/mL. Besides, in [8] (read-out: MRTlast (mean residence time)), the MRT last worked out at 8.09 ± 1.72 h. For the same molecule, in data set [8] (read-out: T1/2λz (elimination half-life) (converted)), the half-life is 4.25 ± 0.3 h. Also, the Skin sensitization entry in data set [9] was “does not cause skin irritation in rabbits or skin sensitization”. In [10] (90 days), the “No-observed-adverse-effect-level (90 days)” value is 20 mg/kg. Further, the “No-observed-adverse-effect-level (180 days)” value in [10] (180 days) is on record as 6 mg/kg BW/day. Also, the “Oral LD50” value in data set [11] is listed as > 5,000 mg/kg body weight (BW). In addition, the “COX-2 inhibition (specificity)” value in [12] was “specifically inhibits COX-2”. In addition, in data set [13], the Mutagenicity entry is listed as “No mutagenicity or teratogenicity” and the Teratogenicity entry was “No mutagenicity or teratogenicity”. In addition, in data set [14], the T1/2λz is given as 7.39 ± 4.17 h. Further, in data set [15], the T1/2λz is 5. 87 ± 3. 37 h. Also, in data set [16] (single oral 18 mg/kg, 0~168 h), the “Cumulative excretion in feces in unaltered form” value is recorded as 4.7334% ± 1.6645% and the “Cumulative excretion in urine in unaltered form” value was 0.0135% ± 0.0053%. For the same molecule, the “Dose recovered in the urine or feces as the parent drug” value in [16] (single oral dose) is less than 5%.
Consider `CS(=O)(=O)c1ccc(-n2cnc(Cl)c2-c2ccc(CO)cc2)nc1` [M1], for which, in [1], the “Source (matrices in which the metabolite was detected)” value was “Plasma, bile, feces, and urine”; the “Share of the metabolite in urinary and fecal excretion” value is reported as “minor amount of the dose”.
